# PMC8494914, “Elexacaftor is a CFTR potentiator and acts synergistically with ivacaftor during acute and chronic treatment” (Scientific Reports, 2021)
# Legend:
# R117H-CFTR = target: T1, R117H-CFTR (Homo sapiens, UniProt P13569, R117H); test: Ussing chamber transepithelial current, acute potentiation; assay type: cell-based
# T1 construct: R117H-CFTR expressed in FRT cells
# [1] = target: T2, cystic fibrosis transmembrane conductance regulator (CFTR) (Homo sapiens, UniProt P13569); test: Ussing chamber transepithelial current, concentration-response of acute potentiation; assay type: cell-based
# T2 construct: endogenous CFTR in non-CF human nasal epithelial cells
# T2 sequence (P13569 whole entry): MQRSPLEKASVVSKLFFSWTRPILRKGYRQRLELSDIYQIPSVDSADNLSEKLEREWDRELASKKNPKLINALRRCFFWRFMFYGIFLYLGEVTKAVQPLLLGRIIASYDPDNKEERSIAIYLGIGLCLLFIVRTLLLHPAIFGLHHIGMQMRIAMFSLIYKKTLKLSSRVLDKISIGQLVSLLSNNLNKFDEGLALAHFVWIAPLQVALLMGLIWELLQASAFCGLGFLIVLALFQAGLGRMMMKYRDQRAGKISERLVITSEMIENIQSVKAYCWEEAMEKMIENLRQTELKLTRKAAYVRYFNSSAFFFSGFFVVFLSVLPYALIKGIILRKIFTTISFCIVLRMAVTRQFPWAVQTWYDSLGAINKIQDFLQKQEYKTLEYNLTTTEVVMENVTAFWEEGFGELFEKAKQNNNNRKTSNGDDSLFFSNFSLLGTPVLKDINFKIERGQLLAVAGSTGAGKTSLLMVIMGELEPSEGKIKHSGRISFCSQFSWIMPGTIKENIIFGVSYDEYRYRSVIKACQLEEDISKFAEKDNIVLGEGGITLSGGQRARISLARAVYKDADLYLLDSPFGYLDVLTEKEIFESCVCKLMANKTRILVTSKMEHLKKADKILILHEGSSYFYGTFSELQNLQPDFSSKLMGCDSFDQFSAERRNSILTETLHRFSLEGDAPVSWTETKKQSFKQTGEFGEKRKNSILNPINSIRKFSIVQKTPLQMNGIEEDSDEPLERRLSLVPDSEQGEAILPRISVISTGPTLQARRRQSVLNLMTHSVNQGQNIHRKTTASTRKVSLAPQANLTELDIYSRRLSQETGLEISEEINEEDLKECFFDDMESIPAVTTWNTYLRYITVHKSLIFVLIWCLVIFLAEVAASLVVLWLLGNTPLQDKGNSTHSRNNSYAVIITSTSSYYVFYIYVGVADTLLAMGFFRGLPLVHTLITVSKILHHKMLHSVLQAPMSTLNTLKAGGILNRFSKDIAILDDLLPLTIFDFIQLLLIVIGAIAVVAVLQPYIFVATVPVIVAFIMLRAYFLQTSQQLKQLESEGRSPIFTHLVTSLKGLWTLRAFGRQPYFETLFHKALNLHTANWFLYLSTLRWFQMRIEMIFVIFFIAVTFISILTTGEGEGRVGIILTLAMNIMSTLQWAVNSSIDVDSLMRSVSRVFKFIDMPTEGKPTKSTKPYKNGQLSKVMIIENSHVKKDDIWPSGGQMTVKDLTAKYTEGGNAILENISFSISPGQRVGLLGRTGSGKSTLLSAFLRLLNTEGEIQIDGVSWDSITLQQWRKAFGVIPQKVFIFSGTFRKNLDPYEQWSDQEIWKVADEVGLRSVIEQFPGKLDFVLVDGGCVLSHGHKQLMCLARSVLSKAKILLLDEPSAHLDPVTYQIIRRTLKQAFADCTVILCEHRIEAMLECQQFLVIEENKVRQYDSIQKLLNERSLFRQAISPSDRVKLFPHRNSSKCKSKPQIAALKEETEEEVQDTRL
# T1 sequence (P13569 whole entry R117H): as the sequence (P13569 whole entry) above, with R117H counted along it
structure (smiles),measurement,setting,value
"Cc1nn(C)cc1S(=O)(=O)NC(=O)c1ccc(-n2ccc(OCC(C)(C)C(F)(F)F)n2)nc1N1C[C@@H](C)CC1(C)C [VX-445, elexacaftor]","Ussing chamber transepithelial current, acute potentiation",R117H-CFTR,We also found that VX-445 potentiates R117H-CFTR expressed in FRT cells
same,EC50,[1],1.5 ± 1.4 nM
"CC(C)(C)c1cc(C(C)(C)C)c(NC(=O)c2c[nH]c3ccccc3c2=O)cc1O [VX-770, ivacaftor]","Ussing chamber transepithelial current, acute potentiation",R117H-CFTR,VX-445 and VX-770 did not exhibit the same high degree of synergy in potentiating R117H-CFTR
